Source: patent US20110039825A1, “LIGANDS OF ALPHA-ADRENOCEPTORS, DOPAMINE, HISTAMINE, IMIDAZOLINE AND SEROTONIN RECEPTORS AND THEIR USE” (Alla Chem, LLC, priority 2007, published 2011)

Assays:
[1] = molecular target: T1, human α1D receptor (Homo sapiens, UniProt P25100); assay: radioligand binding to adrenergic receptor α1D ([3H] Prazosin); settings: 10 μM ligand
T1 construct: expressed in transfected cells; host or cells: HEK-293
T1 sequence (P25100 1-572): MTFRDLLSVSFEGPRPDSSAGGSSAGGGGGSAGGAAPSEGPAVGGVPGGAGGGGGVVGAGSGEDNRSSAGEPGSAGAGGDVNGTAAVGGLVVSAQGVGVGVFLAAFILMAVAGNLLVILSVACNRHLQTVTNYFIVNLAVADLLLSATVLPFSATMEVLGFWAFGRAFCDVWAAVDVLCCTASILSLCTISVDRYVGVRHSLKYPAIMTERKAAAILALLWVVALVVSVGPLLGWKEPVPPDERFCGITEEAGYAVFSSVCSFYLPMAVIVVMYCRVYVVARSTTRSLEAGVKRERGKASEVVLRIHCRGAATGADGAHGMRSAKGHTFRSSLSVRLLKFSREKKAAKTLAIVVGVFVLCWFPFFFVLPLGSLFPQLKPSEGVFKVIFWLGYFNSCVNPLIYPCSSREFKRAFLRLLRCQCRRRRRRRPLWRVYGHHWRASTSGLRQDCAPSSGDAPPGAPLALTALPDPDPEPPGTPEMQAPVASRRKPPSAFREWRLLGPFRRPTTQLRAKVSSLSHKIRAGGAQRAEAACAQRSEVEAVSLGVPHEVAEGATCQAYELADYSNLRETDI
Text: 6-C. […] For this purpose sDNA of human α1D receptor is expressed in HEK-293 cells, as it was described in [T L Theroux, T A Esbenshade, R D Peavy and K P Minneman. Coupling efficiencies of human alpha 1-adrenergic receptor subtypes: titration of receptor density and responsiveness with inducible and repressible expression vectors. Mol. Pharmacol.; 50: 1376-1387, 1996]. […] Prazosin is used as positive control.

[2] = molecular target: T2, human D3 receptor (Homo sapiens, UniProt P35462); assay: radioligand binding to dopamine receptor D3 ([3H] Spiperone); settings: 10 μM ligand
T2 construct: expressed in transfected cells; host or cells: CHO
T2 sequence (P35462 whole entry): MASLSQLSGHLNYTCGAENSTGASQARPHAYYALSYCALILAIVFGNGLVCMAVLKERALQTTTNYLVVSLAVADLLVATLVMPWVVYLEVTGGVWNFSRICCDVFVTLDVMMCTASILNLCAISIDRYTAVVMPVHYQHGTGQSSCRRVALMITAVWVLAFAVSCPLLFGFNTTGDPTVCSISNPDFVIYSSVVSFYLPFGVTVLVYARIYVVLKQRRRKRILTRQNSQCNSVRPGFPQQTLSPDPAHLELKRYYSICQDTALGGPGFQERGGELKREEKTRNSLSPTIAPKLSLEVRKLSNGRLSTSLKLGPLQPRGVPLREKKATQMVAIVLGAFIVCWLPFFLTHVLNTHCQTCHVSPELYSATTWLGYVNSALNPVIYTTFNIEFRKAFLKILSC
Text: For this purpose sDNA of human D3 receptor is expressed in CHO cells, as it was described in [Sokoloff P, Giros B, Martres M-P, Bouthenet M-L and Schwartz J-C. Molecular cloning and characterization of novel dopamine receptor (D3) as target for neuroleptics. Nature. […] Molecular cloning and characterization of novel dopamine receptor (D3) as target for neuroleptics. Nature. […] Spiperone is used as positive control.

[3] = molecular target: T3, recombinant human 5-HT1A (Homo sapiens, UniProt P08908); assay: radioligand binding to serotonin receptor 5-HT1A ([3H] 8-OH-DPAT); settings: ligand concentration 1 μM
T3 construct: expressed in transfected cells; host or cells: CHO
T3 sequence (P08908 1-422): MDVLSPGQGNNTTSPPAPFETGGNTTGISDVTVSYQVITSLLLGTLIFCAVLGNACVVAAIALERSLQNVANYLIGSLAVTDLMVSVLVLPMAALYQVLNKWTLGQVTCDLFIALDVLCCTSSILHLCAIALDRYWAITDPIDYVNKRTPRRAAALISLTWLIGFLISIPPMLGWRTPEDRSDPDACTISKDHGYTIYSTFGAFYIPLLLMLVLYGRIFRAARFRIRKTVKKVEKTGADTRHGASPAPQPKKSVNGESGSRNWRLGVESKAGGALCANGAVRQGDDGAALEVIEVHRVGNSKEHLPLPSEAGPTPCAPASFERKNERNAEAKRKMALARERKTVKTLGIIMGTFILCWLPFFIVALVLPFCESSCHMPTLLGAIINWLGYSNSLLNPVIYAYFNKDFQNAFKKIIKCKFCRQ
Text: J Pharmacol Exp Ther. 306(1): 301-309, 2003]. […] Metergoline is used as positive control.

[4] = molecular target: T4, adrenergic receptor α1B (Rattus norvegicus, UniProt P15823); assay: radioligand binding to adrenergic receptor α1B ([3H] Prazosin); settings: 10 μM ligand
T4 construct: membrane species from rat liver (rat of Wistar breed) are prepared; from tissue; host or cells: rat (Wistar) liver membranes
T4 sequence (P15823 1-515): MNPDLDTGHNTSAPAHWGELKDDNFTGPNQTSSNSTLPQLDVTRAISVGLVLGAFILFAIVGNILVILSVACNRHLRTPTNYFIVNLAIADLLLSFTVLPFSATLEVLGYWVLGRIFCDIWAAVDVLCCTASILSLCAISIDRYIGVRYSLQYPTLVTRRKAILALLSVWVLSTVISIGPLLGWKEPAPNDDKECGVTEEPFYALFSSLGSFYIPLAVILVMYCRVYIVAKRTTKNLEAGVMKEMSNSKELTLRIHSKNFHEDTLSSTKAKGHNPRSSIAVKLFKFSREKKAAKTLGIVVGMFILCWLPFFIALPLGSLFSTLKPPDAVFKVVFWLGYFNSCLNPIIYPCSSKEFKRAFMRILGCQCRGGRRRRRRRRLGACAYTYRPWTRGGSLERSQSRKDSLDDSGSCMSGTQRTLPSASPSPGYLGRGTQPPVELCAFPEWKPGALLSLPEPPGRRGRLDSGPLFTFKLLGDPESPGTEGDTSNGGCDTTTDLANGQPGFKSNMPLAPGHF
Text: Species heterogeneity of hepatic α1A-, α1B-, and α1C-subtypes. Biochem Biophys Res Commun. 186:760-7676 1992]. […] Prazosin is used as positive control.

[5] = molecular target: T5, recombinant human 5-HT6 receptor (Homo sapiens, UniProt P50406); assay: radioligand binding to serotonin receptor 5-HT6 ([3H] Lysergic acid diethylamide)
T5 construct: expressed in transfected cells; host or cells: HeLa
T5 sequence (P50406 whole entry): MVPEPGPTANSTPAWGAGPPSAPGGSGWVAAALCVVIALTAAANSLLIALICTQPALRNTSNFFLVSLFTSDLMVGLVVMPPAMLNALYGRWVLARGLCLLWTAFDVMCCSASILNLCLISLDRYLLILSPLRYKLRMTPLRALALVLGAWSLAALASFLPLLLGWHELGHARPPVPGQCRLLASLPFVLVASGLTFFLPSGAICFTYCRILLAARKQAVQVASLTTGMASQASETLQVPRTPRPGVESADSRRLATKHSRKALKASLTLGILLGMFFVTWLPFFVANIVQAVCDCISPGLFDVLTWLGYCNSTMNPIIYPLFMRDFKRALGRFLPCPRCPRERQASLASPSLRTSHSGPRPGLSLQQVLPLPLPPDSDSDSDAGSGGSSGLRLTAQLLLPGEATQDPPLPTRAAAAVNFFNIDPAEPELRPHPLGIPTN
Text: Mol. Pharmacol. 43:320-327, 1993]. […] Methiothepin is used as positive control.

[6] = molecular target: T6, human D4.2 receptor (Homo sapiens, UniProt P21917, DEL265-296); assay: radioligand binding to dopamine receptor D4.2 ([3H] Spiperone); settings: 10 μM ligand
T6 sequence (P21917 with tags, fused parts or gaps DEL265-296): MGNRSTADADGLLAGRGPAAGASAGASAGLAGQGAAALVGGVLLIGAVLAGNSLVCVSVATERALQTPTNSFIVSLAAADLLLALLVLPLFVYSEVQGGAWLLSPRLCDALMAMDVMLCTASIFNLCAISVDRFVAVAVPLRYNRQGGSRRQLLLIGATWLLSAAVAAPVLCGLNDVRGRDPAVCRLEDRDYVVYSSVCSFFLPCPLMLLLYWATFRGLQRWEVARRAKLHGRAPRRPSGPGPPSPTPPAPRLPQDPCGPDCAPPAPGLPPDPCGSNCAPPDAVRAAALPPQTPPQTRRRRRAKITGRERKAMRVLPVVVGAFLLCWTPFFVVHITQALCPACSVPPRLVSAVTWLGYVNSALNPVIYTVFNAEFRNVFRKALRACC
Procedure: Screening of the disclosed compounds for potential ability to interact with dopamine receptor D4.2 is carried out by method of radioligand binding. […] From the cells transfected in this way membrane species are prepared by homogenization of these cells in glass homogenizer with the subsequent separation of plasmatic membranes from cell nuclei, mitochondrias and cell wreckages by differential centrifugation. […] After incubation samples are filtered in vacuo on glass-microfiber filters G/F (Millipor, USA), filters are washed three times with cold solution of medium and radioactivity is measured by scintillation counter MicroBeta 340 (Perkin Elmer, USA). Nonspecific binding which makes up 10% of the overall binding is determined by incubation of membrane species with radioligand in the presence of 10 μM of Haloperidol.
Spiperone is used as positive control. Tested compounds' binding to the receptor is determined by their ability to displace radioligand and expressed in percent of displacement (% I). Values of % I are calculated according to the following equation:
wherein: TA—is overall radioactivity in the presence of radioligand only, CA—is radioactivity in the presence of radioligand and tested compound and NA—is radioactivity in the presence of radioligand and Haloperidol (10 μM).

[7] = molecular target: T7, human H1 receptor (Homo sapiens, UniProt P35367); assay: radioligand binding to histamine receptor H1 ([3H] Pyrilamine); settings: 10 μM ligand
T7 construct: expressed in transfected cells; host or cells: CHO-K1
T7 sequence (P35367 whole entry): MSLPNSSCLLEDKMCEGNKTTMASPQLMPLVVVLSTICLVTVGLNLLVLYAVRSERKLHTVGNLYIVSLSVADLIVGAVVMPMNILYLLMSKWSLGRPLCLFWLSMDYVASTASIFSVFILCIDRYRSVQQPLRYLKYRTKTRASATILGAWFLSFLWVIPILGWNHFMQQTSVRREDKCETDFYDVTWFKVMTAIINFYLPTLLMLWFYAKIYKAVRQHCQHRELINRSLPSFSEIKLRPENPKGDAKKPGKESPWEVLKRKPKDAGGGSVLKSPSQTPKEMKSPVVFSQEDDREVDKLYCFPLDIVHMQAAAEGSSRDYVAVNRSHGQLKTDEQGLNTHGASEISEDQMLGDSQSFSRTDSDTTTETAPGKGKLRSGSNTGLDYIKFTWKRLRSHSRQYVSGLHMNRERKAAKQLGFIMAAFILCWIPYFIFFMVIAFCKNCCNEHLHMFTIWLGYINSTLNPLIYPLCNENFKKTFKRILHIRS
Text: Biochem Biophys Res Comm. 197(3): 1601-1608, 1993]. […] Biochem Biophys Res Comm. 197(3): 1601-1608, 1993].
Pyrilamine is used as positive control.

[8] = molecular target: T8, human H2 receptor (Homo sapiens, UniProt P25021); assay: radioligand binding to histamine receptor H2 ([125I] Aminopotentidine); settings: 10 μM ligand
T8 construct: expressed in transfected cells; host or cells: CHO-K1
T8 sequence (P25021 whole entry): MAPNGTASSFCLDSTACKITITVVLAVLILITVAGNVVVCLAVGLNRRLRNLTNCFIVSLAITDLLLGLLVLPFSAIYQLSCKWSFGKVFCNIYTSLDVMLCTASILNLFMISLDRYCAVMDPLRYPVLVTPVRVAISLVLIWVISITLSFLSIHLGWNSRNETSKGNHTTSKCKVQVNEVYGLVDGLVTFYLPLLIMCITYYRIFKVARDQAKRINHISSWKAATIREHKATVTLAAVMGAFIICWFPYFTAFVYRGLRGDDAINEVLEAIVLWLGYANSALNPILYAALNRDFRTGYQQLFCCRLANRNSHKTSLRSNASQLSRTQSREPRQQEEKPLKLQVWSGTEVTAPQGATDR
Text: Proc Natl Acad Sci USA. 87(5): 1658-1662, 1990]. […] Proc Natl Acad Sci USA. 87(5): 1658-1662, 1990]. […] Tiotidine is used as positive control.

[9] = molecular target: T9, human D2S receptor (Homo sapiens, UniProt P14416); assay: radioligand binding to dopamine receptor D2S ([3H] Spiperone); settings: 10 μM ligand
T9 construct: expressed in transfected cells; host or cells: CHO
T9 sequence (P14416 1-414 isoform P14416-2): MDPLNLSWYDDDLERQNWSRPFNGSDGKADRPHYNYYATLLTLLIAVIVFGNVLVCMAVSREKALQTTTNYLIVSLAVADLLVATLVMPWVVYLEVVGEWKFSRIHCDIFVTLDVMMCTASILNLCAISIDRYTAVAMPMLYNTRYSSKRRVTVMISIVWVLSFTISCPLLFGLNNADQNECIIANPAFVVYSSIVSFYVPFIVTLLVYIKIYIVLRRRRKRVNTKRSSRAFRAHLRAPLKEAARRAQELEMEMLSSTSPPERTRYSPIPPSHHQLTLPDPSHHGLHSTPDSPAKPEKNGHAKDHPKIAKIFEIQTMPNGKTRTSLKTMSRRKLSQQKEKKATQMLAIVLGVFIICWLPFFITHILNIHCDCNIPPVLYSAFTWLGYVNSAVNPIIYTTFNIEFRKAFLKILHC
Text: 7-C. […] For this purpose sDNA of human D2S receptor is expressed in CHO cells, as described in [Hayes G, Biden T J, Selbie L A and Shine J, Structural subtypes of the dopamine D2 receptor are functionally distinct. […] Mol. Endocrinol. […] Mol. Endocrinol. […] Spiperone is used as positive control.

[10] = molecular target: T10, recombinant human 5-HT2B receptor (Homo sapiens, UniProt P41595); assay: radioligand binding to serotonin receptor 5-HT2B ([3H] Lysergic acid diethylamide)
T10 construct: expressed in transfected cells; host or cells: CHO-K1
T10 sequence (P41595 whole entry): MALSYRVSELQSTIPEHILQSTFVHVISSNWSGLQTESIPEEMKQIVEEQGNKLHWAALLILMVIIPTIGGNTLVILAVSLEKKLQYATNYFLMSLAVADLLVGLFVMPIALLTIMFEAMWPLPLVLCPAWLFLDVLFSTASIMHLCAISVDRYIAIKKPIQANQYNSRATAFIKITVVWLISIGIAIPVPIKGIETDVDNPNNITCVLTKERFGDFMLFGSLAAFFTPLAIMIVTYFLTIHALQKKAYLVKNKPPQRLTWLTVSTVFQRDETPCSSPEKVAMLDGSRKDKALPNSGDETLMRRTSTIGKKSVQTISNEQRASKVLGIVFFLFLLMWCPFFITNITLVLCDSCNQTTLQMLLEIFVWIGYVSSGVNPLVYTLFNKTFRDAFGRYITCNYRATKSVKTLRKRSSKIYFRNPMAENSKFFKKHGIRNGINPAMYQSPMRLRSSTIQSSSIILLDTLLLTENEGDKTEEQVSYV

[11] = molecular target: T11, recombinant human 5-HT2A receptor (Homo sapiens, UniProt P28223); assay: radioligand binding to serotonin receptor 5-HT2A ([3H] Ketanserin)
T11 construct: expressed in transfected cells; host or cells: CHO-K1
T11 sequence (P28223 whole entry): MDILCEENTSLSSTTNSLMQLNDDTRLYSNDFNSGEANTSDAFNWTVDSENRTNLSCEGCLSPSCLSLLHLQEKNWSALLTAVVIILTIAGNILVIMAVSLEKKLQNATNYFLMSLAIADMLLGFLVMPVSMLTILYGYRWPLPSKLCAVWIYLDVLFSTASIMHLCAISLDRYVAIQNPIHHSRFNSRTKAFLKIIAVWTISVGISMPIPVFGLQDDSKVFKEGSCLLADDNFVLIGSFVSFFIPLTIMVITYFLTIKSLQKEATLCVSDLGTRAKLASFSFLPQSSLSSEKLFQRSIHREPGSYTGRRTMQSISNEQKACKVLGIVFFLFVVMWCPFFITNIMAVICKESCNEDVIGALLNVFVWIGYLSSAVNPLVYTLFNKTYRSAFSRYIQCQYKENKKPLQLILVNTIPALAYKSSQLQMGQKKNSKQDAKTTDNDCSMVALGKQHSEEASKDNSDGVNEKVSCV
Procedure: 9-C. […] J. Neurochem. […] Ketanserin is used as positive control. […] Values of % I is calculated according to the following equation: […]

[12] = molecular target: T12, human 5-HT7 receptor (Homo sapiens, UniProt P34969); assay: radioligand binding to serotonin receptor 5-HT7 ([3H] Lysergic acid diethylamide); settings: ligand concentration 1 μM
T12 construct: expressed in transfected cells; host or cells: CHO
T12 sequence (P34969 whole entry): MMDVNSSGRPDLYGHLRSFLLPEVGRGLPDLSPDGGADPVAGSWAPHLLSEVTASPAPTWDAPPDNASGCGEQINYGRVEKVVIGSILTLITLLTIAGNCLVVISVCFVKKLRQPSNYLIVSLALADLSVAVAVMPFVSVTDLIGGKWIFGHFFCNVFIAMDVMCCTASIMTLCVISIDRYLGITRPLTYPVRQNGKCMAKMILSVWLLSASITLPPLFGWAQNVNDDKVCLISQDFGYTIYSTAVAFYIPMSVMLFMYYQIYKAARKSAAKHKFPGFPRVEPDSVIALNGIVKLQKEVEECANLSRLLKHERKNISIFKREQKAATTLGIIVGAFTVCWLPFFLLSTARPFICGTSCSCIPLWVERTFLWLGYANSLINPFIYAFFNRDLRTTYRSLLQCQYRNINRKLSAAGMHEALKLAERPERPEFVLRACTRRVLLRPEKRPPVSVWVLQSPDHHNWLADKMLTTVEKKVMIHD
Text: For this purpose sDNA of human 5-HT7 receptor is expressed in CHO cells as it was described in [Shen Y, Monsma F J Jr, Metcalf M A, Jose P A, Hamblin M W, and Sibley DR. […] J. Biol. Chem. 1993, 268, 18200-18204]. […] J. Pharmacol. Exp. Ther. 1994, 268:1403-1410]. […] Methiothepin is used as positive control.

[13] = test system: imidazoline receptor I2; assay: radioligand binding to imidazoline receptor I2 ([3H] Idazoxan); parameters: species or system rat; settings: 10 μM ligand
Procedure: Determination of investigated compounds' binding to imidazoline I2 receptor is carried out according to the method described in [Brown C M, MacKinnon A C, McGrath J C, Spedding M and Kilpatrick A T, a2-Adrenoceptor subtypes and imidazoline-like binding in the rat brain. Br J. Pharmacol. 99:803-809, 1990]. […] Idazoxan is used as positive control.

SMILES	α-Adrenoceptor α1D, % inhibition [1] [%]	Dopamine receptor D3, % inhibition [2] [%]	inhibition at 1 µM [3] [%]	α-Adrenoceptor α1B, % inhibition [4] [%]	inhibition at 1 µM ([5]; ligand concentration 1 μM, read-out: 5-HT6 % inhibition) [%]	Dopamine receptor D4.2, % inhibition [6] [%]	Histamine receptor H1, % inhibition [7] [%]	Histamine receptor H2, % inhibition [8] [%]	Dopamine receptor D2S, % inhibition [9] [%]	nH 5-HT2B [10]	IC50 ([10]; read-out: IC50 5-HT2B) [nM]	Ki ([10]; read-out: Ki 5-HT2B) [nM]	IC50 [5] [nM]	Ki [5] [nM]	nH 5-HT6 [5]	IC50 [11] [nM]	Ki [11] [nM]	nH 5-HT2A [11]	inhibition at 1 µM [12] [%]	imidazoline I2 receptor % inhibition [13] [%]
Cc1ccc2c(c1)[C@H]1CN(C)CCC[C@@H]1N2CCc1ccc(C)nc1 (relative stereo) [1.6.2(11)]	90	36	55	94	93	6	100	76	31	–	–	–	–	–	–	–	–	–	–	–
Cc1ccc(S(=O)(=O)n2c3c(c4cc(C)ccc42)CN(C)CCC3)cc1.Cl [1.8.1(3)•HCl]	55	–	–	–	–	–	95	82	–	0.784	319	203	34.8	15.9	1.07	22.5	6.43	1.01	99	17
